In paper PMC13083723 (Patterns, 2026) one finds PL_Result and activation data, which are given here for 75 compounds.

Residues, ends and D or L forms follow the SMILES beside them. *: point of attachment. PhAc = O=C(Cc1ccccc1)*

The first experiment relates to Vero-E6 cells. The experiment can be described thus: cells. It counts as cell-based.
Settings: not given
Compound `CC(C)C[C@H](NC(=O)[C@H](Cc1ccccc1)NC(=O)CNC(=O)[C@H](C)NC(=O)[C@@H](N)Cc1ccc(O)cc1)C(=O)O` [SPE_K57927309] came in with a PL_Result of -0.1658.

Still in this experiment, the particulars now being: Chlorocebus sabaeus, Vero C1008, 24 h, read-out: PL_Result.
`C[C@]12CC[C@H]3[C@@H](CCC4=CC(=O)CC[C@@H]43)[C@@H]1CC[C@@H]2O` [SPE_K52080565]: the activation at 10 µM is -3.9%. As to `CNC(=O)[C@H](Cc1ccccc1)NC(=O)[C@H](CC(C)C)[C@H](CSc1cccs1)C(=O)NO` [SPE_K82818427], the activation at 10 µM was determined as 11.4%.

Consider `O=C(C1CCCCC1)N1CC(=O)N2CCc3ccccc3C2C1` (stereo not drawn) [SPE_A21858158], for which the activation at 10 µM is -0.34%.

On to `Cn1cc(C(=O)C(=O)N[C@H]2CN3CCC2CC3)c2ccccc21` [SPE_K20714604], for which the activation at 10 µM worked out at 10.1%. With `CCCCc1nc(C)c(CC(=S)N(C)C)c(=O)n1Cc1ccc(-c2ccccc2-c2nnn[nH]2)cc1` [SPE_K21586122], the activation at 10 µM is -5.47%.

As for `CC[N+](CC)(CC)CC(=O)Nc1c(C)cccc1C` [SPE_K56596464], the activation at 10 µM was -0.251%. On to `O=C(O)C(Cc1ccccc1)NCc1ccc(Cl)cc1` (stereo not drawn) [SPE_A57806482], for which the activation at 10 µM turned out to be 2.25%. In the case of `Nc1nc(NCCc2ccc(O)cc2)nc2nc(-c3ccco3)nn12` [SPE_K19605405], the activation at 10 µM is -2.19%. The same measure, in the same setting: as for `COc1cc(OC)c(OC)cc1C=O` [SPE_K88219015], the figure is -0.692%. For `Nc1ncn([C@@H]2O[C@H](CO)[C@@H](O)[C@H]2O)c(=O)n1` [SPE_K55026842], the activation at 10 µM is -12.3%. For `CC(C)[C@]12O[C@H]1[C@@H]1O[C@]13[C@]1(O[C@H]1C[C@H]1C4=C(CC[C@@]13C)C(=O)OC4)[C@@H]2O` [SPE_K81258678], the activation at 10 µM was -5.53%. In the case of `CC(CCc1ccccc1)NC(C)C(O)c1ccc(O)cc1` (stereo not drawn) [SPE_A36267905], the activation at 10 µM was -4.99%. On the same count and under the same terms, the result for `COc1ccc(F)c(F)c1C(=O)c1cnc(NC2CCN(S(C)(=O)=O)CC2)nc1N` [SPE_K52233191] reads -6.09%; that for `CC(=O)NCCc1c[nH]c2ccccc12` [SPE_K73700643], -6.27%; that for `O=C(/C=C/C=C/c1ccc2c(c1)OCO2)N1CCCCC1` [SPE_K59522102], 2.7%. Consider `CCOC(=O)c1cc2ccc(O)cc2oc1=O` [SPE_K53438416], for which the activation at 10 µM is -0.478%. On to `CCCNC(=O)N1N=C(c2ccc(N)cc2)c2cc3c(cc2C1C)OCO3` (stereo not drawn) [SPE_A77218119], for which the activation at 10 µM turned out to be 7.61%.

For `C/C(=C\c1csc(C)n1)[C@@H]1C[C@@H]2O[C@]2(C)CCC[C@H](C)[C@H](O)[C@@H](C)C(=O)C(C)(C)[C@@H](O)CC(=O)N1` [SPE_K03601870], the activation at 10 µM was -10.6%. Consider `COc1cccc(-c2cc(=O)c3ccccc3o2)c1N` [SPE_K62810658], for which the activation at 10 µM amounted to 2.96%. Regarding `Cc1cccc(Nc2ccncc2S(=O)(=O)NC(=O)NC(C)C)c1` [SPE_K30480208], the activation at 10 µM was -3.18%. As to `CC(=O)Nc1ccc(CC(=O)O)cc1` [SPE_K33483813], the activation at 10 µM worked out at 2.74%. Consider `Cc1cccc(C)c1NC(=O)c1ccccc1C(=O)O` [SPE_K05724540], for which the activation at 10 µM was -3.96%. On to `O=C(O)c1cc(O)c2ccccc2n1` [SPE_K85872723], for which the activation at 10 µM was -13%. As for `O[C@H]1[C@H](O)[C@@H](O)CN2CC[C@H](O)[C@H]12` [SPE_K20897876], the activation at 10 µM was determined as 7.21%.

`CC1(C)O[C@@H]2CC3C4C[C@H](F)C5=CC(=O)C=CC5(C)C4C(O)CC3(C)[C@]2(C(=O)CO)O1` (stereo partly drawn) [SPE_A65449987]: the activation at 10 µM turned out to be 6.74%.

Consider `CCCCCC(=O)O[C@]1(C(C)=O)CCC2C3CCC4=CC(=O)CC[C@]4(C)C3CC[C@@]21C` (stereo partly drawn) [SPE_A29731977], for which the activation at 10 µM is -5.02%. For `CC(C)(Oc1ccc(Cl)cc1)C(=O)O` [SPE_K19111024], the activation at 10 µM was -0.104%. Same read-out and setting: the result for `Nc1ccn([C@H]2C[C@H](O)[C@@H](CO)O2)c(=O)n1` [SPE_K91822704] reads 0.471%; that for `CCCN(CCC)S(=O)(=O)c1ccc(C(=O)O)cc1` [SPE_K95237249], 0.643%. In the case of `CCOC(=O)c1ncc2[nH]c3ccc(OCc4ccccc4)cc3c2c1COC` [SPE_K33882852], the activation at 10 µM was -9.36%. As to `COc1cc(COc2cc(N)c(Cl)cc2C(=O)CCC2CCN(CCNS(C)(=O)=O)CC2)cc(OC)c1` [SPE_K20742498], the activation at 10 µM was -9.12%. Turning to `COc1ccc(S(=O)(=O)N2CCC[C@H]2C(=O)Nc2cc(C)cc(C)c2)cc1` [SPE_K19781342], the activation at 10 µM was determined as 0.676%.

As for `CCOC(=O)c1cc(C#N)c(N2CCC(C(=O)NS(=O)(=O)Cc3ccccc3)CC2)nc1C` [SPE_K77060810], the activation at 10 µM was -0.985%. On to `NS(=O)(=O)c1cc(C(=O)O)cc(N2CCCC2)c1Oc1ccccc1` [SPE_K87990216], for which the activation at 10 µM amounted to 0.629%. Regarding `CCn1cnc2c(Nc3cccc(Cl)c3)nc(N[C@@H]3CCCC[C@@H]3N)nc21` [SPE_K56239177], the activation at 10 µM worked out at 0.0914%. `CCC1NC(=O)c2cc(S(N)(=O)=O)c(Cl)cc2N1` (stereo not drawn) [SPE_A59303141]: the activation at 10 µM was -4.81%. Turning to `C=CCN1C[C@H](C(=O)N(CCCN(C)C)C(=O)NCC)C[C@@H]2c3cccc4[nH]cc(c34)C[C@H]21` [SPE_K86882815], the activation at 10 µM came out at 9.44%. In the case of `N#Cc1cc(F)cc(-c2nc(-c3ccc(F)cn3)no2)c1` [SPE_K61043483], the activation at 10 µM came out at 1.97%.

As for `COc1cc2c(cc1NS(=O)(=O)c1ccc(Br)cc1C)n(C)c(=O)n2C` [SPE_K92658264], the activation at 10 µM is -2.45%. Regarding `O=C(/C=C/c1ccccc1)NCCO` [SPE_K76021681], the activation at 10 µM turned out to be 2.18%. In the case of `CN1CCN(c2nc3ccccc3nc2Cl)CC1` [SPE_K11046126], the activation at 10 µM is -4.46%. With `Cc1nccc2[nH]c(=O)ccc12` [SPE_K40715924], the activation at 10 µM was -2.15%. Take `CCCCCCCN(CC)CCCC(O)c1ccc(NS(C)(=O)=O)cc1` (stereo not drawn) [SPE_A74391928]: the activation at 10 µM was -5.8%.

With `CCCCC/C=C\C/C=C\C/C=C\CCCCC(=O)O` [SPE_K18059238], the activation at 10 µM was 1.69%.

Take `CC(C)[C@H](CO)Nc1nc(Nc2cccc(Cl)c2)c2ncn(C(C)C)c2n1` [SPE_K50836978]: the activation at 10 µM came to 1.32%. Still for that read-out and setting: as for `O=C(O)c1ccc2c(c1)nc(Nc1cccc(Cl)c1)c1ccncc12` [SPE_K81458380], the figure is 1.48%.

Take `Nc1nc2ccc(Cl)cc2c2nc(-c3ccco3)nn12` [SPE_K49049886]: the activation at 10 µM stood at 7.39%.

As to `CCC[N+]12C3C[C@H](C4C(O)[C@]5(C[C@@H]41)c1ccccc1N(C)[C@@H]35)[C@H](CC)[C@H]2O` (stereo partly drawn) [SPE_A53539450], the activation at 10 µM was -3.5%. As to `O=S(=O)(c1cccc2cnccc12)N1CCNCC1` [SPE_K72462751], the activation at 10 µM was -15.9%. In the case of `CCCCCCCC/C=C\CCCCCCCC(=O)NCCO` [SPE_K66956375], the activation at 10 µM is -6.58%. The same measure, in the same setting: the result for `CC(C)Oc1ccc(-c2nc(-c3cccc4c3CC[C@@H]4NCCO)no2)cc1C#N` [SPE_K46625559] reads -0.603%; that for `CC[C@@H](CO)NC(=O)[C@@H]1C=C2c3cccc4[nH]cc(c34)C[C@H]2N(C)C1` [SPE_K34685430], -5.04%. As to `CC(C)CNc1nc(-c2cccc3ncccc23)cn2c(-c3ccc(C(=O)NC4CC4)cc3)cnc12` [SPE_K18530250], the activation at 10 µM was -11.5%. For `CC[C@H](CO)Nc1nc(NCc2ccccc2)c2ncn(C(C)C)c2n1` [SPE_K07691486], the activation at 10 µM worked out at 5.8%. As for `O=C(O)CCNc1cc(N2CCc3ccccc3CC2)nc(-c2ccccn2)n1` [SPE_K32847255], the activation at 10 µM is -5.77%.

With `O=C(O)c1ccccc1-c1ccc(C(F)(F)F)cc1` [SPE_K99506538], the activation at 10 µM amounted to 0.609%.

`CN1C2CCCC1CC(NC(=O)c1nn(C)c3ccccc13)C2` (stereo not drawn) [SPE_A10967948]: the activation at 10 µM turned out to be 3.5%. As for `O=C(O)CCn1c2c(c3ccccc31)C[C@H](NS(=O)(=O)c1ccc(F)cc1)CC2` [SPE_K08586861], the activation at 10 µM is -12%.

`O=[N+]([O-])c1cc(Cl)ccc1S(=O)(=O)N1CCN(Cc2ccccc2)CC1` [SPE_K45519571]: the activation at 10 µM is 3.29%. Take `Oc1cc2c(cc1O)CN(C(=S)NCCc1ccc(Cl)cc1)CCC2` [SPE_K44849676]: the activation at 10 µM was -5.94%. For the compound `O=C(NCCCN1CCOCC1)c1ccc(Cl)cc1` [SPE_K17979676], the activation at 10 µM is -11.4%.

Regarding `CC(C)(O)CC(=O)NCCn1ccc2ncnc(Nc3ccc(Oc4cccc(C(F)(F)F)c4)c(Cl)c3)c21` [SPE_K80343549], the activation at 10 µM was -7.02%. The same measure, in the same setting: the result for `c1ccc(C2CC2)c(OCC2=NCCN2)c1` [SPE_K54142781] reads -12.4%; that for `c1cc(-c2cnn3cc(-c4ccc(N5CCNCC5)cc4)cnc23)c2cccnc2c1` [SPE_K59831625], 29.5%; that for `CCOC(=O)[C@@H](N)Cc1ccc(O)c(O)c1` [SPE_K90982969], -3.7%. On the same count and under the same terms, the result for `COc1cc2c(cc1C(F)(F)F)N(C(=O)Nc1cc(F)cc(-c3cccnc3)c1)CC2` [SPE_K15424032] reads 13.1%.

With `CC(=O)c1ccc2c(c1)N(CCCN(C)C)c1ccccc1S2` [SPE_K37814297], the activation at 10 µM was 27.3%. For the compound `CCOC(=O)CNC(=O)[C@@H]1CCCN1C(=O)Cc1ccccc1` [SPE_K22520627] (PhAc-Pro-Gly-OEt), the activation at 10 µM was -4.57%. For `CC(O)(C(=O)Nc1ccc(S(=O)(=O)c2ccccc2)cc1)C(F)(F)F` (stereo not drawn) [SPE_A62209527], the activation at 10 µM is -3.22%. Consider `Cc1nc(Nc2ncc(C(=O)Nc3c(C)cccc3Cl)s2)cc(N2CCN(CCO)CC2)n1` [SPE_K49328571], for which the activation at 10 µM is 0.377%.

For the compound `CCCN(C/C=C/I)C1CCc2cccc(O)c2C1` (stereo not drawn) [SPE_A60594020], the activation at 10 µM was 6.75%. Same read-out and setting: as for `COC(=O)C1=CCCN(C)C1` [SPE_K88646909], the figure is 3.55%.

As for `COc1ccccc1N1CCN(CCN(C(=O)C2CCCCC2)c2ccccn2)CC1` [SPE_K69812556], the activation at 10 µM is -15.3%. For the compound `Clc1ccc(Cn2c(CN3CCCC3)nc3ccccc32)cc1` [SPE_K04704168], the activation at 10 µM was 18%.
